Data as given in patent US11013726B2 (Arbutus Biopharma Corporation, priority 2016, dated 2021).

system: HBsAg; experiment: HBsAg assay; type: cell-based, hepatitis B virus; conditions: Hepatitis B virus, HepG2.2.15, 144 h, read-out: sAg EC50, μM, HepG2.2.15 cells, day 6
Procedure: Inhibition of HBsAg was determined in HepG2.2.15 cells. Cells were maintained in culture medium containing 10% fetal calf serum, […], Glutamine, penicillin/streptomycin. Cells were seeded in 96-well collagen-coated plate at a density of 30,000 cells/well. Serially diluted compounds were added to cells next day at the final DMSO concentration of 0.5%. Cells were incubated with compounds for 2-3 days, after which medium was removed. Fresh medium containing compounds was added to cells for additional 3-4 days. At day 6 after exposure of compounds, supernatant was collected, the HBsAg immunoassay (microplate-based chemiluminescence immunoassay kits, CLIA, Autobio Diagnosics Co., Zhengzhou, China, Catalog # CL0310-2) was used to determine the level of HBsAg according to manufactory instruction. Dose-response curves were generated and the EC50 value (effective concentrations that achieved 50% inhibitory effect) were determined using XLfit software. In addition, cells were seeded at a density of 5,000 cells/well for determination of cell viability in the presence and absence of compounds by using CellTiter-Glo reagent (Promega). Tables 1-3 show EC50 values obtained by the HBsAg assay for selected compounds.

Compound	EC50
COCCCOc1cc2c(nc1OC)-c1cc(=O)c(C(=O)O)cn1C(C(C)C)C2 (centres unmarked) [Example 20, 6-Isopropyl-2-methoxy-3-(3-methoxypropoxy)-10-oxo-5,10-dihydro-6H-pyrido[1,2-h][1,7]naphthyridine-9-carboxylic acid]	0.005 µM
COc1cc2c(nc1OC)-c1cc(=O)c(C(=O)O)cn1C(C(C)C)C2 (centres unmarked) [Example 23, 6-Isopropyl-2,3-dimethoxy-10-oxo-5,10-dihydro-6H-pyrido[1,2-h][1,7]naphthyridine-9-carboxylic acid]	0.019 µM
COCCCOc1cc2c(nc1OC)-c1c(F)c(=O)c(C(=O)O)cn1[C@H](C(C)C)C2 [Example 26, (S)-11-Fluoro-6-isopropyl-2-methoxy-3-(3-methoxypropoxy)-10-oxo-5,10-dihydro-6H-pyrido[1,2-h][1,7]naphthyridine-9-carboxylic acid]	0.002 µM
COCCCOc1cc2c(cc1Cl)-c1cc(=O)c(C(=O)O)cn1[C@H](C(C)C)CO2 [Example 27, (R)-2-Chloro-7-isopropyl-3-(3-methoxypropoxy)-11-oxo-6,7-dihydro-11H-benzo[f]pyrido[1,2-d][1,4]oxazepine-10-carboxylic acid]	0.011 µM
COCCCOc1cc2c(cc1Cl)-c1cc(=O)c(C(=O)O)cn1[C@@H](C(C)C)CO2 [Example 28, (S)-2-Chloro-7-isopropyl-3-(3-methoxypropoxy)-11-oxo-6,7-dihydro-11H-benzo[f]pyrido[1,2-d][1,4]oxazepine-10-carboxylic acid]	0.46 µM
COCCOc1cc2c(cc1Cl)-c1cc(=O)c(C(=O)O)cn1C(C(C)C)CO2 (centres unmarked) [Example 29, 2-Chloro-7-isopropyl-3-(2-methoxyethoxy)-11-oxo-6,7-dihydro-11H-benzo[f]pyrido[1,2-d][1,4]oxazepine-10-carboxylic acid]	0.065 µM
CCOC(=O)c1cn2c(cc1=O)-c1cc(Cl)c(O)cc1OCC2C(C)C (centres unmarked) [Example 32, Ethyl 2-chloro-3-hydroxy-7-isopropyl-11-oxo-6,7-dihydro-11H-benzo[f]pyrido[1,2-d][1,4]oxazepine-10-carboxylate]	22 µM
COCCCOc1cc2c(cc1Cl)-c1cc(=O)c(C(=O)O)cn1C(C(C)C)CO2 (centres unmarked) [Example 33, 2-Chloro-7-isopropyl-3-(3-methoxypropoxy)-11-oxo-6,7-dihydro-11H-benzo[f]pyrido[1,2-d][1,4]oxazepine-10-carboxylic acid]	0.029 µM
CC(C)[C@@H]1COc2cc(OCC(F)(F)F)c(Cl)cc2-c2cc(=O)c(C(=O)O)cn21 [Example 34, (R)-2-Chloro-7-isopropyl-11-oxo-3-(2,2,2-trifluoroethoxy)-6,7-dihydro-11H-benzo[f]pyrido[1,2-d][1,4]oxazepine-10-carboxylic acid]	0.086 µM
CC(C)[C@@H]1COc2cc(OCC3CC3)c(Cl)cc2-c2cc(=O)c(C(=O)O)cn21 [Example 35, (R)-2-Chloro-3-(cyclopropylmethoxy)-7-isopropyl-11-oxo-6,7-dihydro-11H-benzo[f]pyrido[1,2-d][1,4]oxazepine-10-carboxylic acid]	0.033 µM
CC(C)[C@@H]1COc2cc(OCCCO)c(Cl)cc2-c2cc(=O)c(C(=O)O)cn21 [Example 36, (R)-2-Chloro-3-(3-hydroxypropoxy)-7-isopropyl-11-oxo-6,7-dihydro-11H-benzo[f]pyrido[1,2-d][1,4]oxazepine-10-carboxylic acid]	0.019 µM
CC(C)[C@@H]1COc2cc(OCC(C)(C)CO)c(Cl)cc2-c2cc(=O)c(C(=O)O)cn21 [Example 37, (R)-2-Chloro-3-(3-hydroxy-2,2-dimethylpropoxy)-7-isopropyl-11-oxo-6,7-dihydro-11H-benzo[f]pyrido[1,2-d][1,4]oxazepine-10-carboxylic acid]	0.012 µM
COCCCCOc1cc2c(cc1Cl)-c1cc(=O)c(C(=O)O)cn1[C@H](C(C)C)CO2 [Example 38, (R)-2-Chloro-7-isopropyl-3-(4-methoxybutoxy)-11-oxo-6,7-dihydro-11H-benzo[f]pyrido[1,2-d][1,4]oxazepine-10-carboxylic acid]	0.017 µM
CC(C)[C@@H]1COc2cc(OCCCCO)c(Cl)cc2-c2cc(=O)c(C(=O)O)cn21 [Example 39, (R)-2-Chloro-3-(4-hydroxybutoxy)-7-isopropyl-11-oxo-6,7-dihydro-11H-benzo[f]pyrido[1,2-d][1,4]oxazepine-10-carboxylic acid]	0.014 µM
CC(C)[C@@H]1COc2cc(OCCCN3CCOCC3)c(Cl)cc2-c2cc(=O)c(C(=O)O)cn21 [Example 40, (R)-2-Chloro-7-isopropyl-3-(3-morpholinopropoxy)-11-oxo-6,7-dihydro-11H-benzo[f]pyrido[1,2-d][1,4]oxazepine-10-carboxylic acid]	0.14 µM
CC(C)[C@@H]1COc2cc(OCCOCCBr)c(Cl)cc2-c2cc(=O)c(C(=O)O)cn21 [Example 41, (R)-3-(2-(2-Bromoethoxy)ethoxy)-2-chloro-7-isopropyl-11-oxo-6,7-dihydro-11H-benzo[f]pyrido[1,2-d][1,4]oxazepine-10-carboxylic acid]	0.1 µM
CC(C)[C@@H]1COc2cc(OCCCNC(=O)OC(C)(C)C)c(Cl)cc2-c2cc(=O)c(C(=O)O)cn21 [Example 42, (R)-3-(3-((tert-Butoxycarbonyl)amino)propoxy)-2-chloro-7-isopropyl-11-oxo-6,7-dihydro-11H-benzo[f]pyrido[1,2-d][1,4]oxazepine-10-carboxylic acid]	0.042 µM
COCCCOc1cc2c(cc1Cl)-c1cc(=O)c(C(=O)O)cn1[C@H](CCO)CO2 [Example 43, (R)-2-Chloro-7-(2-hydroxyethyl)-3-(3-methoxypropoxy)-11-oxo-6,7-dihydro-11H-benzo[f]pyrido[1,2-d][1,4]oxazepine-10-carboxylic acid]	0.35 µM
CC(C)COc1cc2c(cc1C1CC1)-c1cc(=O)c(C(=O)O)cn1[C@H](C(C)C)CO2 [Example 44, (R)-2-Cyclopropyl-3-isobutoxy-7-isopropyl-11-oxo-6,7-dihydro-11H-benzo[f]pyrido[1,2-d][1,4]oxazepine-10-carboxylic acid]	0.006 µM
COCCCOc1cc2c(cc1C1CC1)-c1cc(=O)c(C(=O)O)cn1[C@H](C(C)C)CO2 [Example 45, (R)-2-Cyclopropyl-7-isopropyl-3-(3-methoxypropoxy)-11-oxo-6,7-dihydro-11H-benzo[f]pyrido[1,2-d][1,4]oxazepine-10-carboxylic acid]	0.006 µM
COCCCOc1cc2c(cc1C)-c1cc(=O)c(C(=O)O)cn1[C@H](C(C)C)CO2 [Example 46, (R)-7-Isopropyl-3-(3-methoxypropoxy)-2-methyl-11-oxo-6,7-dihydro-11H-benzo[f]pyrido[1,2-d][1,4]oxazepine-10-carboxylic acid]	0.039 µM
CCc1cc2c(cc1OCCCOC)OC[C@@H](C(C)C)n1cc(C(=O)O)c(=O)cc1-2 [Example 47, (R)-2-Ethyl-7-isopropyl-3-(3-methoxypropoxy)-11-oxo-6,7-dihydro-11H-benzo[f]pyrido[1,2-d][1,4]oxazepine-10-carboxylic acid]	0.006 µM
C=Cc1cc2c(cc1OCCCOC)OC[C@@H](C(C)C)n1cc(C(=O)O)c(=O)cc1-2 [Example 48, (R)-7-Isopropyl-3-(3-methoxypropoxy)-11-oxo-2-vinyl-6,7-dihydro-11H-benzo[f]pyrido[1,2-d][1,4]oxazepine-10-carboxylic acid]	0.004 µM
Cc1cc2c(cc1OCC1CC1)OC[C@@H](C(C)C)n1cc(C(=O)O)c(=O)cc1-2 [Example 49, (R)-3-(Cyclopropylmethoxy)-7-isopropyl-2-methyl-11-oxo-6,7-dihydro-11H-benzo[f]pyrido[1,2-d][1,4]oxazepine-10-carboxylic acid]	0.049 µM
CCc1cc2c(cc1OCC1CC1)OC[C@@H](C(C)C)n1cc(C(=O)O)c(=O)cc1-2 [Example 50, (R)-3-(Cyclopropylmethoxy)-2-ethyl-7-isopropyl-11-oxo-6,7-dihydro-11H-benzo[f]pyrido[1,2-d][1,4]oxazepine-10-carboxylic acid]	0.011 µM
Cc1cc2c(cc1OCC(C)C)OC[C@@H](C(C)C)n1cc(C(=O)O)c(=O)cc1-2 [Example 51, (R)-3-Isobutoxy-7-isopropyl-2-methyl-11-oxo-6,7-dihydro-11H-benzo[f]pyrido[1,2-d][1,4]oxazepine-10-carboxylic acid]	0.015 µM
CCc1cc2c(cc1OCC(C)C)OC[C@@H](C(C)C)n1cc(C(=O)O)c(=O)cc1-2 [Example 52, (R)-2-Ethyl-3-isobutoxy-7-isopropyl-11-oxo-6,7-dihydro-11H-benzo[f]pyrido[1,2-d][1,4]oxazepine-10-carboxylic acid]	0.007 µM
CC(C)[C@@H]1COc2cc(OCCCNC(=O)OC(C)(C)C)c(C3CC3)cc2-c2cc(=O)c(C(=O)O)cn21 [Example 53, (R)-3-(3-((tert-Butoxycarbonyl)amino)propoxy)-2-cyclopropyl-7-isopropyl-11-oxo-6,7-dihydro-11H-benzo[f]pyrido[1,2-d][1,4]oxazepine-10-carboxylic acid]	0.013 µM
CC(C)[C@@H]1COc2cc(OCC(F)(F)F)c(C3CC3)cc2-c2cc(=O)c(C(=O)O)cn21 [Example 54, (R)-2-Cyclopropyl-7-isopropyl-11-oxo-3-(2,2,2-trifluoroethoxy)-6,7-dihydro-11H-benzo[f]pyrido[1,2-d][1,4]oxazepine-10-carboxylic acid]	0.012 µM
